Tests used:
KLW = target: T1, KLW (Homo sapiens, UniProt P42345+P62942, T2098L); test: SeAP transcriptional switch assay, FRB mutant KLW; format: cell-based
T1 construct: The minimal FRB domain comprises amino acids 2025-2114 of human mTor; expressed in transfected cells; host or cells: COS1 cells
Protocol: Drug efficacy was determined in a three-plasmid transcriptional switch reporter assay. ˜106 COS1 cells were coelectroporated with 2 μg of the DNA binding construct pBJ5-Gal4-FKBP(3), 2 μg pBJ5-VP16 (or the relevant mutant FRB) and 2 μg of the Gal4-SeAP reporter. Electroporation details are available upon request. Cells were immediately aliquoted to 2 or 3×96 well plates with flat bottoms. After 24 hours incubation media was supplemented with a rapalog in triplicate and in serial two fold dilutions. Following 24 hours further incubation, cells with media were wrapped carefully in plastic wrap and heated to 65° C. for two hours to inactivate endogenous phosphatases. 50 μL of media was transferred to a black 96 well plate (Costar 3915) and supplemented with 1 mM methylumbelliferrylphosphate (Sigma, St. Louis, Mo.) in 1M diethanolamine (pH 10.0 with carbonate). After 16 hours incubation at 37° C. SeAP activity was measured by fluorescence with a Spectamax M2 fluorometer (Molecular Devices, Sunnyvale, Calif.) with transmission set at 355 nm and emmission set at 460 nm. Data was analysed with Softmax Pro (Molecular Devices), Microsoft Excel and Prism 3 (GraphPad Software).

mutant FRBs = target: T2, mutant FRBs (Homo sapiens, UniProt P42345, K2095T/T2098L); test: SeAP transcriptional switch assay, panel of FRB mutants at 2095, 2098, 2101; format: cell-based; conditions: TLW
T2 construct: The minimal FRB domain comprises amino acids 2025-2114 of human mTor; expressed in transfected cells; host or cells: COS1 cells
Protocol: All FRB mutants were prepared by the Quikchange mutagenesis method (Stratagene) using protocols provided by the manufacturer. Briefly, PCR reactions containing the parent plasmid pBJ5-FRB-VP16-HA or pBJ5-FRB*-VP16-HA and overlapping oligonucleotides containing the relevant base changes were performed with Pfu polymerase (Stratagene, San Diego, Calif.). PCR reactions were digested with the methylation sensitive restriction endonuclease Dpn1 to eliminate the parent plasmid and the reaction was transformed in XL10-Gold Ultracompetent E. coli (Stratagene).
Electroporation details are available upon request. Cells were immediately aliquoted to 2 or 3×96 well plates with flat bottoms. […] Data was analysed with Softmax Pro (Molecular Devices), Microsoft Excel and Prism 3 (GraphPad Software).

embryos = test: Overt effects on mother and embryos after IP injection of pregnant mice; format: in vivo, mouse; conditions: 200 mg/kg/day, 3 IP injections every 12 hours, E10.0 to E11.5
Protocol: GSK-3β^+/FRB* mice were intercrossed and the date of vaginal plug observation was set as E0.5. At E9.5, the stage of embryonic development was confirmed by ultrasonography (Chang, C. P. et al. “Sonographic Staging of the Developmental Status of Mouse Embryos in Utero.” (2003) Published in Genesis 36, 7-11) and mice were weighed. Drug administration commenced at E10.0. […] 100 μL was immediately injected intraperitoneally (IP) to pregnant females with injections repeated twice more at 12 hour intervals to E11.5 when mice were sacrificed, and embryos and organs were dissected and frozen in […]. Tissues anterior to the embryonic forelimbs of individual embryos were used for preparation of protein extracts with the remainder used to determine the concentration of drug and for genotyping.

GSK-3βFRB* [1] = target: GSK-3βFRB* (UniProt P26883+P42345, K2095P/T2098L/W2101F); test: Stabilization of GSK-3βFRB* in embryos of injected pregnant mice; format: in vivo, mouse; design: The minimal FRB domain comprises amino acids 2025-2114 of human mTor; endogenous in cells; host or cells: MEFs from GSK-3β^FRB* knock-in mice (fusion expressed from the targeted endogenous locus); conditions: 200 mg/kg/day IP to mother, embryos harvested at E11.5
Protocol: GSK-3β^+/FRB* mice were intercrossed and the date of vaginal plug observation was set as E0.5. At E9.5, the stage of embryonic development was confirmed by ultrasonography (Chang, C. P. et al. “Sonographic Staging of the Developmental Status of Mouse Embryos in Utero.” (2003) Published in Genesis 36, 7-11) and mice were weighed. Drug administration commenced at E10.0. C20-MaRap was dissolved as a stock in N,N-dimethylacetamide (DMA) and was diluted into a delivery vehicle containing 10% Polyethylene glycol 400, 17% Polyoxyethylene sorbitan monooleate and 10% DMA to a final concentration of […]. 100 μL was immediately injected intraperitoneally (IP) to pregnant females with injections repeated twice more at 12 hour intervals to E11.5 when mice were sacrificed, and embryos and organs were dissected and frozen in […]. Tissues anterior to the embryonic forelimbs of individual embryos were used for preparation of protein extracts with the remainder used to determine the concentration of drug and for genotyping.

[2] = tested on: T3, GSK-3βFRB* (K2095P/T2098L/W2101F); test: GSK-3β immunoprecipitation-kinase assay on MEF lysates; format: biochemical, mouse; conditions: treated versus untreated GSK-3βFRB*/FRB* MEFs
T3 construct: The minimal FRB domain comprises amino acids 2025-2114 of human mTor; endogenous in cells; host or cells: lysates of MEFs from GSK-3β^FRB* knock-in mice; immunoprecipitated with anti-GSK-3β

GSK-3βFRB* [3] = target: T4, GSK-3βFRB* (Homo sapiens, UniProt P42345+P62942, K2095P/T2098L/W2101F); test: as above; format: biochemical, mouse; conditions: treated GSK-3βFRB*/FRB* cells
T4 construct: The minimal FRB domain comprises amino acids 2025-2114 of human mTor; endogenous in cells; host or cells: lysates of MEFs from GSK-3β^FRB* knock-in mice; immunoprecipitated with anti-GSK-3β
T4 sequence (P42345 2025-2114 K2095P/T2098L/W2101F): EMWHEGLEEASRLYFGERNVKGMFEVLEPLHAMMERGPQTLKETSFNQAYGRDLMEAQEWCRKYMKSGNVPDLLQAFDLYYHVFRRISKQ
T4 sequence (P62942 whole entry, the tested form may be a part): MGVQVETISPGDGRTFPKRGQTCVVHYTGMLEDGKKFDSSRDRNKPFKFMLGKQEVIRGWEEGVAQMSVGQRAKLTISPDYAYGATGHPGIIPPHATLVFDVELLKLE

T1 sequence (P42345 2025-2114 T2098L): as the sequence (P42345 2025-2114 K2095P/T2098L/W2101F) above, with P71K, F77W counted along it
T1 sequence (P62942 whole entry, the tested form may be a part): as the sequence (P62942 whole entry, the tested form may be a part) above
Sequence of GSK-3βFRB* (UniProt P26883+P42345, K2095P/T2098L/W2101F) (P42345 2025-2114 K2095P/T2098L/W2101F): as the sequence (P42345 2025-2114 K2095P/T2098L/W2101F) above
Sequence of GSK-3βFRB* (UniProt P26883+P42345, K2095P/T2098L/W2101F) (P26883 2-108): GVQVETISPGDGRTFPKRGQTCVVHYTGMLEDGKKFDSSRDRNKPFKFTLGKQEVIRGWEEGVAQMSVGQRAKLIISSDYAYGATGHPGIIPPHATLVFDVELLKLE
T3 sequence (P42345 2025-2114 K2095P/T2098L/W2101F): as the sequence (P42345 2025-2114 K2095P/T2098L/W2101F) above
T3 sequence (P62942 whole entry, further chain, the tested form may be a part): as the sequence (P62942 whole entry, the tested form may be a part) above
T2 sequence (P42345 2025-2114 K2095T/T2098L): as the sequence (P42345 2025-2114 K2095P/T2098L/W2101F) above, with P71T, F77W counted along it
T2 sequence (P62942 2-108 partner): as the sequence (P26883 2-108) above, with T49M, I75T, S78P counted along it

Substance: C20-(R or S)-methallylrapamycin [C20-MaRap]
- improvement of affinity of KLW over wild-type (KLW; KLW versus wild-type FRB): about 5 fold
- EC50 (KLW; single mutation Thr2098 to Leu, read-out: affinity, KLW): 0.022 µM
- binding to the TLW mutant (mutant FRBs): inefficiently
- overt effect on mother and embryos (embryos): Neither the mother nor the embryos were overtly affected
- GSK-3βFRB* protein levels in embryos (GSK-3βFRB* [1]): partially restored
- increase in GSK-3β kinase activity [2]: over 7 fold
- kinase activity relative to wild-type cells (GSK-3βFRB* [3]): approximately 60%
